Data on three compounds can be found in US20230321023A1, “APPLICATION OF REGULATION OF EYE SCLERA LIPID METABOLISM TO INHIBIT MYOPIA” (Wenzhou Medical University, priority 2020, published 2023).

Series [1] concerns FD myopia. Kind of series: FD myopia in guinea pigs, peribulbar injection of DHA, EPA or atropine. The class given is in vivo, guinea pig. The conditions noted are these: 2 weeks; for reduction of myopia progression vs Vehicle group: high dose 3.0 μg/day. Here is the method: (§1) The test animals were British tricolored short-haired guinea pigs aged 3 weeks. The animals were subjected to monocular form deprivation (FD) by a mask method and were randomly divided into 6 groups, which were treated by peribulbar injection with the following different substances: (1) ethanol solvent group (Vehicle); (2) low-dose DHA group (1.0 μg); (3) high-dose DHA group (3.0 μg): (4) low-dose EPA group (1.0 μg); (5) high-dose EPA group (3.0 μg); and (6) 0.1% atropine group.
The measurement methods of refraction, vitreous chamber depth and eye axis length were the same as those in Example 2.

The nature of series [2]: Safety test, peribulbar injection of DHA. The class given is in vivo, guinea pig. The conditions noted are these: peribulbar DHA alone, up to 3 μg/day, vs Vehicle control. How it is done: as §1
Series [3] is described as follows: Allergy study, periocular injection in FD animals. The class given is in vivo. The conditions noted are these: high-purity DHA 3.0 μg or DHA 3.0 μg+EPA 3.0 μg, 100 μL daily periocular, 2 weeks. How it is done: Animals were randomly divided into three groups: FD+cod liver oil (commercially available ω-3 polyunsaturated fatty acids) group; FD+high-purity drug group 1 (FD+DHA 3.0 μg); and FD+high-purity drug group 2 (FD+“DHA 3.0 μg+EPA 3.0 μg”), and both high-purity drug groups were at a high dose.
After applying a topical anesthetic (one drop of 0.5% propazocaine hydrochloride, Alcon Laboratories, Inc., Puurs, Belgium), 100 μL of drug was daily administered at the surrounding area of FD eyeballs at 9:00 a.m., continuing for 2 weeks. All injections were completed within 10 seconds under dark red light to minimize any possible impact of red light on induced myopic recovery.

Series [4] deals with FD myopia. Kind of series: Optimal treatment scheme: peribulbar DHA/EPA formulations in young guinea pig models with FD myopia. The class given is in vivo. Set-up: Vitreous chamber depth (difference between experimental eye and fellow eye): unit not given here. As to conditions: FD guinea pigs, total mass 3 μg; for Eye axis length (difference between experimental eye and fellow eye): in mm (unit assumed); for Myopia inhibition rate: 1 W vs Veh. The text has this:
The optimal treatment protocol or scheme applying ω-3 by means by of feeding and peribulbar injection were investigated, respectively, and some critical findings were shown, especially when the eye was subjected to topical administration, unexpected results were obtained by using DHA alone or a composition of DHA and EPA. The basic experimental procedures were as described above.
However, as the content of EPA increases to become the predominant component (i.e., DHA:EPA<1:1), the efficacy of the mixture of DHA and EPA (the total mass of ocular topical administration is 3 μg in each case) is even better than that of DHA alone, EPA alone, or a mixture of DHA and EPA containing DHA as the main component (i.e., DHA:EPA>1:1, for example, […]) and is statistically significant (Table 1 and FIG. 12). It can be seen that the mixture of DHA and EPA that uses EPA as the predominant component or the predominant active ingredient has the optimal inhibition effect of myopia and myopia-related symptoms. Overall, all the treatment protocols in this example are very effective in inhibiting the negative refraction, eye axis elongation, and vitreous cavity depth increase.

Structures are written as SMILES.

With `CN1[C@@H]2CC[C@H]1C[C@@H](OC(=O)C(CO)c1ccccc1)C2` (stereo partly drawn) [Atropine, atropine, reference compound], the “reduced myopia rate (positive control)” value with FD myopia [1] (0.1% atropine) was found to be 35.6%.

`CC/C=C\C/C=C\C/C=C\C/C=C\C/C=C\C/C=C\CCC(=O)O` [DHA, docosahexaenoic acid]: in the series with FD myopia [1], the “reduction of myopia progression vs Vehicle group” value is recorded as 35.3%. In addition, in series [2], the “ACD (anterior chamber depth)” value is on record as “no significant ocular differences”, the “LT (lens thickness)” value is “no significant ocular differences” and the body weight result is reported as “no significant ocular differences”. In addition, the “adverse reactions such as allergies” value in series [3] is recorded as “no adverse reactions such as allergies”. Also, in the series on FD myopia [4] (0 W), the “Refraction (difference between experimental eye and fellow eye)” value was −0.23; the “Vitreous chamber depth (difference between experimental eye and fellow eye)” value came to 0.00; the “Eye axis length (difference between experimental eye and fellow eye)” value is reported as −0.01. The Myopia inhibition rate with FD myopia [4] is 31.8%. In the series with FD myopia [4] (1 W), the “Refraction (difference between experimental eye and fellow eye)” value was −2.95; the “Vitreous chamber depth (difference between experimental eye and fellow eye)” value is listed as 0.06; the “Eye axis length (difference between experimental eye and fellow eye)” value amounted to 0.06.

As for `CC/C=C\C/C=C\C/C=C\C/C=C\C/C=C\CCCC(=O)O` [EPA, eicosapentaenoic acid], in the series on FD myopia [1], the “reduction of myopia progression vs Vehicle group” value came out at 29.6%. Also, in the series on FD myopia [4] (0 W), the “Refraction (difference between experimental eye and fellow eye)” value is given as −0.40; the “Vitreous chamber depth (difference between experimental eye and fellow eye)” value turned out to be 0.00; the “Eye axis length (difference between experimental eye and fellow eye)” value is reported as 0.01. Further, the Myopia inhibition rate in the series with FD myopia [4] was found to be 21.0%. In the series on FD myopia [4] (1 W), the “Refraction (difference between experimental eye and fellow eye)” value was −3.42; the “Vitreous chamber depth (difference between experimental eye and fellow eye)” value is recorded as 0.07; the “Eye axis length (difference between experimental eye and fellow eye)” value amounted to 0.07.
